Assay results reported in paper PMC12406203 (Journal of Medicinal Chemistry, 2025).

How the values were obtained:
Assay in all cases: KINOMEscan
Format in all cases: binding
[1] = molecular target: T1, BTK (Homo sapiens, UniProt Q06187)
T1 construct: purchased Eurofins DiscoverX, LLC; host or cells: E. coli BL21-derived (T7 phage) or HEK-293

[2] = molecular target: T2, LKB1 (Homo sapiens, UniProt Q15831)
T2 construct: purchased Eurofins DiscoverX, LLC; host or cells: E. coli (BL21-derived, T7 phage) or HEK-293
T2 sequence (Q15831 1-433): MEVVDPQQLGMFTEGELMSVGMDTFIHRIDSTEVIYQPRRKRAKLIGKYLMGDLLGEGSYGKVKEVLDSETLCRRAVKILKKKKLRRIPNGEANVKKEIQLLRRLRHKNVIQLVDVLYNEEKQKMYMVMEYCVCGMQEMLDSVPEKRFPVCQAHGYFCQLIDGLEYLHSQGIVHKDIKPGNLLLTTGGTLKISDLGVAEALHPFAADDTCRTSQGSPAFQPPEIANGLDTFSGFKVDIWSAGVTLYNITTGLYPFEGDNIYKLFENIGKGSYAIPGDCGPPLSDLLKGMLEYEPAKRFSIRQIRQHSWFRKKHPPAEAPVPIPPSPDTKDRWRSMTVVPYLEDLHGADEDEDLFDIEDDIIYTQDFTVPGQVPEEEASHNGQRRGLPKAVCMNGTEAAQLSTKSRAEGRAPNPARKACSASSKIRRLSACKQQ

[3] = molecular target: T3, MAPKAPK5 (Homo sapiens, UniProt Q8IW41)
T3 construct: purchased Eurofins DiscoverX, LLC; host or cells: E. coli (BL21-derived, T7 phage) or HEK-293
T3 sequence (Q8IW41 1-473): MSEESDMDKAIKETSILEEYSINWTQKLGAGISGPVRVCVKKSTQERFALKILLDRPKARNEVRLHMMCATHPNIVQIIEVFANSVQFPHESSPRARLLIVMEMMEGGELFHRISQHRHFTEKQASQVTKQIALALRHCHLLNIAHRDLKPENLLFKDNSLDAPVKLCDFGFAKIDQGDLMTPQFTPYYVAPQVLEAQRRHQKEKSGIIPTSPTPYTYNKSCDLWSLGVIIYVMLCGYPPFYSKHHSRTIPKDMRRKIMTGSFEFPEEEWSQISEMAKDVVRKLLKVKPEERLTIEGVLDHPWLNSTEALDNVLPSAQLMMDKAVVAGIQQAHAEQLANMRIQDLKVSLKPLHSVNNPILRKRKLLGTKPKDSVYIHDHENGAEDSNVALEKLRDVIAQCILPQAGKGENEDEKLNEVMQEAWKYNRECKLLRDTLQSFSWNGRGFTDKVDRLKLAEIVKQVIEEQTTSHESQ

[4] = molecular target: T4, MEK1 (Homo sapiens, UniProt Q02750)
T4 construct: purchased Eurofins DiscoverX, LLC; host or cells: E. coli (BL21-derived, T7 phage) or HEK-293
T4 sequence (Q02750 whole entry): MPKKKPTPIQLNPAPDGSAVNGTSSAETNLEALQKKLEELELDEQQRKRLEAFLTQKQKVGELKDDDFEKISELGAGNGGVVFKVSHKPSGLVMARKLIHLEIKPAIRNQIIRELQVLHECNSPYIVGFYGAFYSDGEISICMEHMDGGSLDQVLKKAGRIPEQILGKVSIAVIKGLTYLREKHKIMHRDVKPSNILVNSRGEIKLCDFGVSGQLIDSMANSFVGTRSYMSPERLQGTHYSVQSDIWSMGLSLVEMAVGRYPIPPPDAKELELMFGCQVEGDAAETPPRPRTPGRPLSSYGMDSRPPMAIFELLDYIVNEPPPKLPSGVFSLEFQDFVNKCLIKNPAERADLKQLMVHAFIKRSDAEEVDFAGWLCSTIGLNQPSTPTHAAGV

[5] = molecular target: T5, PIK3CG (Homo sapiens, UniProt P48736)
T5 construct: purchased Eurofins DiscoverX, LLC; host or cells: E. coli BL21-derived host (T7 phage) or HEK-293
T5 sequence (P48736 whole entry): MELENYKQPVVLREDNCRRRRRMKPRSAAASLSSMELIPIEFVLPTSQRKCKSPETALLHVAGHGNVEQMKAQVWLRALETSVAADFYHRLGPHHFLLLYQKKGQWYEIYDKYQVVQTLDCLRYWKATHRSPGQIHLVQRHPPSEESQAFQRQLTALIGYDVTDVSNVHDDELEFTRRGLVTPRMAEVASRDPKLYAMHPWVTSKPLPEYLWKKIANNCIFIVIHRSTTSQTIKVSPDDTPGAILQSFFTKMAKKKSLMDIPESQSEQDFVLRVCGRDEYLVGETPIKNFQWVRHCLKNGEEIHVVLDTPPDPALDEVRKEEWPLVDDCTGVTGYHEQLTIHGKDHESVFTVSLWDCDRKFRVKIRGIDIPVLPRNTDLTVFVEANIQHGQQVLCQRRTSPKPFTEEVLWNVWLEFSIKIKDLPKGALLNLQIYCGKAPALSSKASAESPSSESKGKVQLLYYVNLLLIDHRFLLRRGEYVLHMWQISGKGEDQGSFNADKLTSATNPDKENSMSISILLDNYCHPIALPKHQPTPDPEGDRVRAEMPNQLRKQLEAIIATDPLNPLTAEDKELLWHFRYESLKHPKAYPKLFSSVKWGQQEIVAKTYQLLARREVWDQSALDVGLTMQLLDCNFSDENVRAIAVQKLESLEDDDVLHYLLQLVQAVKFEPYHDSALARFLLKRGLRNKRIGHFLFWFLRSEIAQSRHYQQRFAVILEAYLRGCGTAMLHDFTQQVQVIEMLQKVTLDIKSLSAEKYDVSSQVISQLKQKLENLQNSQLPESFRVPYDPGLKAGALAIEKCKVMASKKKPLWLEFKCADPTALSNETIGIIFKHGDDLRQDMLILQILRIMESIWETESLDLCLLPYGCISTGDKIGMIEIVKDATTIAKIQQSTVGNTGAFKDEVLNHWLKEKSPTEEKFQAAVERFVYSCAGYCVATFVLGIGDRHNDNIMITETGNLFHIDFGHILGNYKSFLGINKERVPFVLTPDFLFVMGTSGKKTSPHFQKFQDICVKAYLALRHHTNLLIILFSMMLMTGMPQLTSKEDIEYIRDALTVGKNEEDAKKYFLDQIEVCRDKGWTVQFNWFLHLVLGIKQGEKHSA

[6] = molecular target: T6, PLK3 (Homo sapiens, UniProt Q9H4B4)
T6 construct: purchased Eurofins DiscoverX, LLC; host or cells: E. coli BL21-derived host (T7 phage) or HEK-293
T6 sequence (Q9H4B4 whole entry): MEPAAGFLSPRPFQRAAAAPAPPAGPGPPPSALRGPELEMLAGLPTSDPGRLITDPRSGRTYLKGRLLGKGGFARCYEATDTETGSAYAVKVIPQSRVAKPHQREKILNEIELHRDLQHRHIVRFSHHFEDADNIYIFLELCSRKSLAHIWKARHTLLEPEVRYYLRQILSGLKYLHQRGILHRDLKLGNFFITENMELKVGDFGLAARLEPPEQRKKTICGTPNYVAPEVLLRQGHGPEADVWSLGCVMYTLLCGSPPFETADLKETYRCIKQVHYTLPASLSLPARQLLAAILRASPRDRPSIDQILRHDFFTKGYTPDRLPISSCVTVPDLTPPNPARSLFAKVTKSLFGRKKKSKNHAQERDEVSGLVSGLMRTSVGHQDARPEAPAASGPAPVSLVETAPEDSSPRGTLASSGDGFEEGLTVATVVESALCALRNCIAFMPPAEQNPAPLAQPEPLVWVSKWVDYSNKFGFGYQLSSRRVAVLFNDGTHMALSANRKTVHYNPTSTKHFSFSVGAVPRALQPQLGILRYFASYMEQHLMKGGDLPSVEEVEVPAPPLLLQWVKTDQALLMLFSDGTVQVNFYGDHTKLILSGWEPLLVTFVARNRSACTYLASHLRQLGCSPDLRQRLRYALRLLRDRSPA

[7] = molecular target: T7, p38γ (Homo sapiens, UniProt P53778)
T7 construct: purchased Eurofins DiscoverX, LLC; host or cells: E. coli (BL21-derived, T7 phage) or HEK-293
T7 sequence (P53778 1-367): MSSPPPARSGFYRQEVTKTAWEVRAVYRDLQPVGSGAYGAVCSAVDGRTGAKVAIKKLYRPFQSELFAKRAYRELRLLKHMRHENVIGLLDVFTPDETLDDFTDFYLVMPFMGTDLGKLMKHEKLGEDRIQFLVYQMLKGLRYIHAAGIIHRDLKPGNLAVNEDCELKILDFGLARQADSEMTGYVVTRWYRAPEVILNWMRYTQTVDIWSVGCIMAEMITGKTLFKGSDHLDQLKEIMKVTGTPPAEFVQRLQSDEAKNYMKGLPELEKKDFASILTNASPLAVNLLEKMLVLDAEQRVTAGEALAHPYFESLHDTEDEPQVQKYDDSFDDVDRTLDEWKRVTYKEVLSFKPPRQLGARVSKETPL

T1 sequence (Q06187 whole entry): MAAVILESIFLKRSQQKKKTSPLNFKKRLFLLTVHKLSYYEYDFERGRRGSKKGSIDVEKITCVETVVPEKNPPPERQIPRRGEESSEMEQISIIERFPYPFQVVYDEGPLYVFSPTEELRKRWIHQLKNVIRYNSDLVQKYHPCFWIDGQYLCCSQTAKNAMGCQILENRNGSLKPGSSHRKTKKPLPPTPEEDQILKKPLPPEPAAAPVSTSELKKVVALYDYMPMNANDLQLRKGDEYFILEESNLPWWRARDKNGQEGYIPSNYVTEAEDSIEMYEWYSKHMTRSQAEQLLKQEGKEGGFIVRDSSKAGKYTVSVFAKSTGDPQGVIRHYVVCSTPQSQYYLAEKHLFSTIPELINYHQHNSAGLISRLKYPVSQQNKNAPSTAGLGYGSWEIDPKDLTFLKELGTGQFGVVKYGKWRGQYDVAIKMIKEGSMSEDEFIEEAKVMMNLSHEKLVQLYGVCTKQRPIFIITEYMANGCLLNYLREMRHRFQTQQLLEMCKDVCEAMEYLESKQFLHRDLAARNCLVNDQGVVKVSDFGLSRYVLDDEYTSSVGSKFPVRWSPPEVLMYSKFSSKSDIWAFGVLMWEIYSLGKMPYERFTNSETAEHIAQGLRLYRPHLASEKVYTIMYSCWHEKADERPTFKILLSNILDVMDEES

Structure (SMILES)	RA @ 1000nM [1]	RA @ 10000nM [1]	RA @ 1000nM [2]	RA @ 10000nM [2]	RA @ 1000nM [3]	RA @ 10000nM [3]	RA @ 1000nM [4]	RA @ 10000nM [4]	RA @ 1000nM [5]	RA @ 10000nM [5]	RA @ 1000nM [6]	RA @ 10000nM [6]	RA @ 1000nM [7]	RA @ 10000nM [7]
CN(C)CCNC(=O)c1cc2c(cnn2CC2CCCCC2)cc1Cc1ccc(F)cc1F [Compound 95, 1-(Cyclohexylmethyl)-5-(2,4-difluorobenzyl)-N-(2-(dimethylamino)ethyl)-1H-indazole-6-carboxamide]	100%	100%	100%	86%	100%	100%	98%	100%	92%	97%	88%	100%	100%	99%
CC(C)Cn1ncc2cc(Cc3ccc(F)cc3F)c(C(=O)NCCN(C)C)cc21 [Compound 94, 5-(2,4-Difluorobenzyl)-N-(2-(dimethylamino)ethyl)-1-isobutyl-1H-indazole-6-carboxamide]	100%	100%	100%	96%	100%	100%	98%	74%	86%	85%	100%	97%	93%	94%
